# Measurements taken from US20170304388A1, “NEW INDICATION OF CARDIOVASCULAR DRUGS FOR PREPARATION OF CANCER INHIBITION PHARMACEUTICAL COMPOSITION” (LAUNX BIOMEDICAL CO., LTD., priority 2014, published 2017).
# Counter-ions that a name gives are not always drawn. Like-named read-outs stand apart in the source and are kept apart here.
# Assays:
# Assay type in all cases: cell-based
# [1] = test system: A375 (Amelanotic Melanoma); assay: Cell viability analysis (WST-1), A375; conditions: WST-1, OD450 nm, lower viability = better inhibition; for viability at 10 µM: Homo sapiens, read-out: survival rate (viability) of cancer cells, A375
# [2] = test system: HCT116 (Colorectal Carcinoma); assay: Cell viability analysis (WST-1), HCT116; conditions: WST-1, OD450 nm; for survival rate (viability) of cancer cells, HCT116 (WT): Table 3, drug 10 μM, 72 hours; for viability at 10 µM: Homo sapiens, HCT-116, 72 h, Table 3, drug 10 μM, read-out: survival rate (viability) of cancer cells, HCT116 (WT)
# [3] = test system: AGS (Gastric Adenocarcinoma); assay: Cell viability analysis (WST-1), AGS; conditions: WST-1, OD450 nm; for viability at 10 µM: read-out: survival rate (viability) of cancer cells, AGS
# [4] = test system: H1650 (Lung Adenocarcinoma); assay: Cell viability analysis (WST-1), H1650; conditions: WST-1, OD450 nm; for viability at 10 µM: Homo sapiens, read-out: survival rate (viability) of cancer cells, H1650
# [5] = test system: MKN-45 (Gastric Adenocarcinoma); assay: Cell viability analysis (WST-1), MKN-45; conditions: WST-1, OD450 nm; for viability at 10 µM: Homo sapiens, read-out: survival rate (viability) of cancer cells, MKN-45
# [6] = test system: TSGH-8301 (Urinary Bladder Carcinoma); assay: Cell viability analysis (WST-1), TSGH-8301; conditions: WST-1, OD450 nm; for viability at 10 µM: read-out: survival rate (viability) of cancer cells, TSGH
# [7] = test system: A549 (Lung Adenocarcinoma); assay: Cell viability analysis (WST-1), A549; conditions: WST-1, OD450 nm; for viability at 10 µM: Homo sapiens, read-out: survival rate (viability) of cancer cells, A549
# [8] = test system: HL-60 (Acute Promyelocytic Leukemia); assay: Cell viability analysis (WST-1), HL-60; conditions: Table 3, drug 10 μM, 72 hours, WST-1, OD450 nm; for viability at 10 µM: Homo sapiens, HL-60, read-out: survival rate (viability) of cancer cells, HL-60
# cancer cell lines = assay: Growth inhibitory effects on the panel of cancer cell lines; conditions: drug 10 μM, 72 hours; for Numbers of inhibitory effect on cancer cell line: count of cancer cell lines inhibited; for inhibition effect on different cancer cell lines (in words): WST-1
# [9] = test system: HepG2 (Hepatocellular Carcinoma); assay: Cell viability analysis (WST-1), HepG2; conditions: WST-1, OD450 nm; for viability at 10 µM: Homo sapiens, read-out: survival rate (viability) of cancer cells, HepG2
# [10] = test system: HeLa (Cervix Adenocarcinoma); assay: Cell viability analysis (WST-1), HeLa; conditions: Homo sapiens, HeLa, WST-1, OD450 nm, read-out: survival rate (viability) of cancer cells, HeLa
# [11] = test system: MCF7 (Mammary Gland, Adenocarcinoma); assay: Cell viability analysis (WST-1), MCF7; conditions: WST-1, OD450 nm; for viability at 10 µM: Homo sapiens, read-out: survival rate (viability) of cancer cells, MCF7
# [12] = test system: PC3 (Prostate Adenocarcinoma); assay: Cell viability analysis (WST-1), PC3; conditions: WST-1, OD450 nm; for viability at 10 µM: read-out: survival rate (viability) of cancer cells, PC3
# [13] = test system: LoVo (Colorectal Adenocarcinoma); assay: Cell viability analysis (WST-1), LoVo; conditions: WST-1, OD450 nm; for viability at 10 µM: Homo sapiens, LoVo, read-out: survival rate (viability) of cancer cells, LoVo
# [14] = A-375, 72 h, Table 3, drug 10 μM
# [15] = HepG2, 72 h, Table 3, drug 10 μM
# [16] = MKN-45, 72 h, Table 3, drug 10 μM
# [17] = A549, 72 h, Table 3, drug 10 μM
# [18] = MCF7, 72 h, Table 3, drug 10 μM
# [19] = NCI-H1650, 72 h, Table 3, drug 10 μM
compound,measurement,setting,value
Gabexate mesylate,"survival rate (viability) of cancer cells, A375","[1]; Table 3, drug 10 μM, 72 hours",77.9
same,"survival rate (viability) of cancer cells, HCT116 (WT)",[2],114.9
same,"survival rate (viability) of cancer cells, AGS","[3]; Table 3, drug 10 μM, 72 hours",75.0
same,"survival rate (viability) of cancer cells, H1650","[4]; Table 3, drug 10 μM, 72 hours",69.8
same,"survival rate (viability) of cancer cells, MKN-45","[5]; Table 3, drug 10 μM, 72 hours",81.1
same,"survival rate (viability) of cancer cells, TSGH","[6]; Table 3, drug 10 μM, 72 hours",70.9
same,"survival rate (viability) of cancer cells, A549","[7]; Table 3, drug 10 μM, 72 hours",77.3
same,"survival rate (viability) of cancer cells, HL-60",[8],117.6
same,Numbers of inhibitory effect on cancer cell line,cancer cell lines,0
same,inhibition effect on different cancer cell lines (in words),cancer cell lines,significant inhibition effect
NC(=O)c1ncn([C@@H]2O[C@H](CO)[C@@H](O)[C@H]2O)c1N [Acadesine],viability at 10 µM,[1]; [14],99.1%
same,viability at 10 µM,[2],88.7%
same,viability at 10 µM,[9]; [15],103%
same,viability at 10 µM,"[10]; 72 h, Table 3, drug 10 μM",88.4%
same,viability at 10 µM,"[3]; 72 h, Table 3, drug 10 μM",75.4%
same,viability at 10 µM,[5]; [16],81.5%
same,viability at 10 µM,"[6]; 72 h, Table 3, drug 10 μM",99.7%
same,viability at 10 µM,[7]; [17],117%
same,viability at 10 µM,[11]; [18],84.7%
same,viability at 10 µM,"[12]; 72 h, Table 3, drug 10 μM",94.8%
same,viability at 10 µM,"[13]; 72 h, Table 3, drug 10 μM",80.9%
same,viability at 10 µM,[8],110%
same,Numbers of inhibitory effect on cancer cell line,cancer cell lines,0
same,inhibition effect on different cancer cell lines (in words),cancer cell lines,significant inhibition effect
"CC1Cc2ccccc2N1NC(=O)c1ccc(Cl)c(S(N)(=O)=O)c1 (stereo not drawn) [Indapamide (Lozol), Indapamide]",viability at 10 µM,[1]; [14],64.8%
same,viability at 10 µM,[2],80%
same,viability at 10 µM,[9]; [15],84%
same,viability at 10 µM,"[10]; 72 h, Table 3, drug 10 μM",67.9%
same,viability at 10 µM,"[3]; 72 h, Table 3, drug 10 μM",109%
same,viability at 10 µM,[4]; [19],86.7%
same,viability at 10 µM,[5]; [16],105%
same,viability at 10 µM,"[6]; 72 h, Table 3, drug 10 μM",85%
same,viability at 10 µM,[7]; [17],106%
same,viability at 10 µM,[11]; [18],65.5%
same,viability at 10 µM,"[12]; 72 h, Table 3, drug 10 μM",76.8%
same,viability at 10 µM,"[13]; 72 h, Table 3, drug 10 μM",92.7%
same,Numbers of inhibitory effect on cancer cell line,cancer cell lines,0
same,inhibition effect on different cancer cell lines (in words),cancer cell lines,significant inhibition effect
Cc1cccc(C)c1N=C1NCCCS1 [Xylazine HCl],viability at 10 µM,"[1]; A-375, Table 3, drug 10 μM, 72 hours",63.5%
same,viability at 10 µM,"[9]; HepG2, Table 3, drug 10 μM, 72 hours",83.5%
same,viability at 10 µM,"[10]; Table 3, drug 10 μM, 72 hours",65.1%
same,viability at 10 µM,"[3]; Table 3, drug 10 μM, 72 hours",86.3%
same,viability at 10 µM,"[4]; NCI-H1650, Table 3, drug 10 μM, 72 hours",67.2%
same,viability at 10 µM,"[5]; MKN-45, Table 3, drug 10 μM, 72 hours",88.7%
same,viability at 10 µM,"[6]; Table 3, drug 10 μM, 72 hours",61.5%
same,viability at 10 µM,"[7]; A549, Table 3, drug 10 μM, 72 hours",71.7%
same,viability at 10 µM,"[11]; MCF7, Table 3, drug 10 μM, 72 hours",104%
same,viability at 10 µM,"[12]; Table 3, drug 10 μM, 72 hours",105%
same,viability at 10 µM,"[13]; Table 3, drug 10 μM, 72 hours",96.6%
same,viability at 10 µM,[8],116%
same,Numbers of inhibitory effect on cancer cell line,cancer cell lines,0
same,inhibition effect on different cancer cell lines (in words),cancer cell lines,significant inhibition effect
COc1ccc([C@H]2CNC(=O)C2)cc1OC1CCCC1 [S-(+)-Rolipram],"survival rate (viability) of cancer cells, A375","[1]; Table 3, drug 10 μM, 72 hours",77.0
same,"survival rate (viability) of cancer cells, HCT116 (WT)",[2],86.2
same,"survival rate (viability) of cancer cells, HepG2","[9]; Table 3, drug 10 μM, 72 hours",90.4
same,"survival rate (viability) of cancer cells, TSGH","[6]; Table 3, drug 10 μM, 72 hours",81.1
same,"survival rate (viability) of cancer cells, MCF7","[11]; Table 3, drug 10 μM, 72 hours",80.4
same,"survival rate (viability) of cancer cells, PC3","[12]; Table 3, drug 10 μM, 72 hours",89.3
same,"survival rate (viability) of cancer cells, LoVo","[13]; Table 3, drug 10 μM, 72 hours",94.1
same,"survival rate (viability) of cancer cells, HL-60",[8],107.3
same,Numbers of inhibitory effect on cancer cell line,cancer cell lines,0
same,inhibition effect on different cancer cell lines (in words),cancer cell lines,significant inhibition effect
"Cc1[nH]c(=O)c(C#N)cc1-c1ccncc1 [Milrinone (Primacor), Milrinone]",viability at 10 µM,[2],104%
same,viability at 10 µM,[9]; [15],98.5%
same,viability at 10 µM,"[10]; 72 h, Table 3, drug 10 μM",99%
same,viability at 10 µM,"[3]; 72 h, Table 3, drug 10 μM",130%
same,viability at 10 µM,[4]; [19],86.2%
same,viability at 10 µM,[5]; [16],92.9%
same,viability at 10 µM,[7]; [17],90.9%
same,viability at 10 µM,[11]; [18],98.5%
same,viability at 10 µM,"[12]; 72 h, Table 3, drug 10 μM",92%
same,viability at 10 µM,"[13]; 72 h, Table 3, drug 10 μM",90.5%
same,viability at 10 µM,[8],112%
same,Numbers of inhibitory effect on cancer cell line,cancer cell lines,0
same,inhibition effect on different cancer cell lines (in words),cancer cell lines,significant inhibition effect
